# According to ChEMBL document CHEMBL1156482, “Molecular mechanism of action of monocyclam versus bicyclam non-peptide antagonists in the CXCR4 chemokine receptor” (J Biol Chem, 2007):
# How the values were obtained:
# [1] = target: T1, C-X-C chemokine receptor type 4 (Homo sapiens, UniProt P61073); experiment: Displacement of [125I]12G5 antibody from human wild type CXCR4 expressed in COS7 cells; assay type: cell-based, COS-7
# [2] = test system: C-X-C chemokine receptor type 4 (Homo sapiens), P61073 [H203A]; experiment: (§1) Displacement of [125I]12G5 antibody from transmembrane domain 5 of human CXCR4 H203A mutant expressed in COS7 cells; assay type: cell-based; conditions: COS-7
# Sequence of C-X-C chemokine receptor type 4 (Homo sapiens), P61073 [H203A] (P61073 whole entry H203A, the tested form may be a part): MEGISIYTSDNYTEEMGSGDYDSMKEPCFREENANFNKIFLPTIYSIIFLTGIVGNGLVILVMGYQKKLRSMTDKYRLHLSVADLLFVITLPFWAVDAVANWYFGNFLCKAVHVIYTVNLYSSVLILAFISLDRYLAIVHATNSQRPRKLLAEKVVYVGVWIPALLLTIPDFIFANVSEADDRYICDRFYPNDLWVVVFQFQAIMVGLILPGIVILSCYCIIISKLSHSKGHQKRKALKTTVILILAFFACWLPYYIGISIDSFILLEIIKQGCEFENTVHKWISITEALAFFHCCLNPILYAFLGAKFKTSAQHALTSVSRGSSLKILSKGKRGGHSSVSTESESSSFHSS
# [3] = target: C-X-C chemokine receptor type 4 (Homo sapiens, UniProt P61073, H203A); experiment: as §1; assay type: cell-based, COS-7
# Sequence of C-X-C chemokine receptor type 4 (Homo sapiens, UniProt P61073, H203A) (P61073 whole entry H203A, the tested form may be a part): as above
# [4] = test system: C-X-C chemokine receptor type 4 (Homo sapiens), P61073 [G207F]; experiment: (§2) Displacement of [125I]12G5 antibody from transmembrane domain 5 of human CXCR4 G207F mutant expressed in COS7 cells; assay type: cell-based; conditions: COS-7
# Sequence of C-X-C chemokine receptor type 4 (Homo sapiens), P61073 [G207F] (P61073 whole entry G207F, the tested form may be a part): as the sequence (P61073 whole entry H203A, the tested form may be a part) above, with A203H, G207F counted along it
# [5] = target: C-X-C chemokine receptor type 4 (Homo sapiens, UniProt P61073, G207F); experiment: as §2; assay type: cell-based, COS-7
# Sequence of C-X-C chemokine receptor type 4 (Homo sapiens, UniProt P61073, G207F) (P61073 whole entry G207F, the tested form may be a part): as the sequence (P61073 whole entry H203A, the tested form may be a part) above, with A203H, G207F counted along it
# [6] = test system: C-X-C chemokine receptor type 4 (Homo sapiens), P61073 [T287A]; experiment: (§3) Displacement of [125I]12G5 antibody from transmembrane domain 7 of human CXCR4 T287A mutant expressed in COS7 cells; assay type: cell-based; conditions: COS-7
# Sequence of C-X-C chemokine receptor type 4 (Homo sapiens), P61073 [T287A] (P61073 whole entry T287A, the tested form may be a part): as the sequence (P61073 whole entry H203A, the tested form may be a part) above, with A203H, T287A counted along it
# [7] = target: T2, C-X-C chemokine receptor type 4 (Homo sapiens, UniProt P61073, T287A); experiment: as §3; assay type: cell-based, COS-7
# T2 sequence (P61073 whole entry T287A, the tested form may be a part): as the sequence (P61073 whole entry H203A, the tested form may be a part) above, with A203H, T287A counted along it
# [8] = test system: C-X-C chemokine receptor type 4 (Homo sapiens), P61073 [E288A]; experiment: (§4) Displacement of [125I]12G5 antibody from transmembrane domain 7 of human CXCR4 E288A mutant expressed in COS7 cells; assay type: cell-based; conditions: COS-7
# Sequence of C-X-C chemokine receptor type 4 (Homo sapiens), P61073 [E288A] (P61073 whole entry E288A, the tested form may be a part): as the sequence (P61073 whole entry H203A, the tested form may be a part) above, with A203H, E288A counted along it
# [9] = target: C-X-C chemokine receptor type 4 (Homo sapiens, UniProt P61073, E288A); experiment: as §4; assay type: cell-based, COS-7
# Sequence of C-X-C chemokine receptor type 4 (Homo sapiens, UniProt P61073, E288A) (P61073 whole entry E288A): as the sequence (P61073 whole entry H203A, the tested form may be a part) above, with A203H, E288A counted along it
# [10] = target: T1, C-X-C chemokine receptor type 4; experiment: Antagonist activity at human wild type CXCR4 expressed in COS7 cells coexpressing G protein Gqi4myr assessed as inhibition of CXCL12-induced phosphatidylinositol turnover; assay type: functional, cell-based, COS-7
# [11] = test system: C-X-C chemokine receptor type 4 (Homo sapiens), P61073 [D171N]; experiment: (§5) Antagonist activity at human CXCR4 D171N mutant expressed in COS7 cells coexpressing G protein Gqi4myr assessed as inhibition of CXCL12-induced phosphatidylinositol turnover; assay type: functional, cell-based; conditions: COS-7
# Sequence of C-X-C chemokine receptor type 4 (Homo sapiens), P61073 [D171N] (P61073 whole entry D171N): as the sequence (P61073 whole entry H203A, the tested form may be a part) above, with D171N, A203H counted along it
# [12] = target: C-X-C chemokine receptor type 4 (Homo sapiens, UniProt P61073, D171N); experiment: as §5; assay type: functional, cell-based, COS-7
# Sequence of C-X-C chemokine receptor type 4 (Homo sapiens, UniProt P61073, D171N) (P61073 whole entry D171N): as the sequence (P61073 whole entry H203A, the tested form may be a part) above, with D171N, A203H counted along it
# [13] = test system: C-X-C chemokine receptor type 4 (Homo sapiens), P61073 [D262N]; experiment: (§6) Antagonist activity at human CXCR4 D262N mutant expressed in COS7 cells coexpressing G protein Gqi4myr assessed as inhibition of CXCL12-induced phosphatidylinositol turnover; assay type: functional, cell-based; conditions: COS-7
# Sequence of C-X-C chemokine receptor type 4 (Homo sapiens), P61073 [D262N] (P61073 whole entry D262N): as the sequence (P61073 whole entry H203A, the tested form may be a part) above, with A203H, D262N counted along it
# [14] = target: C-X-C chemokine receptor type 4 (Homo sapiens, UniProt P61073, D262N); experiment: as §6; assay type: functional, cell-based, COS-7
# Sequence of C-X-C chemokine receptor type 4 (Homo sapiens, UniProt P61073, D262N) (P61073 whole entry D262N): as the sequence (P61073 whole entry H203A, the tested form may be a part) above, with A203H, D262N counted along it
# [15] = test system: C-X-C chemokine receptor type 4 (Homo sapiens), P61073 [T287A]; experiment: (§7) Antagonist activity at human CXCR4 T287A mutant expressed in COS7 cells coexpressing G protein Gqi4myr assessed as inhibition of CXCL12-induced phosphatidylinositol turnover; assay type: functional, cell-based; conditions: COS-7
# [16] = target: T2, C-X-C chemokine receptor type 4; experiment: as §7; assay type: functional, cell-based, COS-7
# [17] = test system: Human immunodeficiency virus 1; experiment: Antiviral activity against HIV1 clinical isolate 10 infected in U87.CD4 cells expressing human CXCR4 D171N mutant; assay type: functional, organism-based; conditions: Human immunodeficiency virus 1, U87.CD4
# [18] = test system: Human immunodeficiency virus 1; experiment: Antiviral activity against HIV1 NL43 infected in U87.CD4 cells expressing human CXCR4 H281A mutant; assay type: functional, organism-based; conditions: Human immunodeficiency virus 1, NL43, U87.CD4
# [19] = test system: Human immunodeficiency virus 1; experiment: Antiviral activity against HIV1 clinical isolate 10 infected U87.CD4 cells expressing human CXCR4 E288A mutant; assay type: functional, organism-based; conditions: Human immunodeficiency virus 1, U87.CD4
# T1 sequence (P61073 whole entry, the tested form may be a part): as the sequence (P61073 whole entry H203A, the tested form may be a part) above, with A203H counted along it
compound,measurement,setting,value
c1ccc(CNCc2ccc(CN3CCCNCCNCCCNCC3)cc2)nc1,Ki,[1],110 nM
same,logKi,[1]; COS-7,-6.95
same,logKi,[2],-6.35
same,Ki,[3],440 nM
same,logKi,[4],-6.81
same,Ki,[5],160 nM
same,logKi,[6],-5.71
same,Ki,[7],2000 nM
same,logKi,[8],-4.94
same,Ki,[9],11000 nM
same,Ki,[10],10 nM
same,logIC50,[10]; COS-7,-8.01
same,logIC50,[11],-6.76
same,Ki,[12],180 nM
same,logIC50,[13],-5.11
same,Ki,[14],7800 nM
same,logIC50,[15],-8.1
same,Ki,[16],10 nM
same,IC50,[17],183000 nM
same,IC50,[18],> 1100 nM
same,IC50,[19],1570 nM
